Assay results published in patent US8466202B2, “Anthracenedione compounds” (Sunten Phytotech Co., Ltd., priority 2006, dated 2013).
Values joined by “and” are separate entries in the source; they are usually repeats but may differ in a detail not shown here. Equal values may be shown once.

Columns and labels:
healthy male S.D. rats = test: Feces production in rats over the 10-day period (Example 3); type: in vivo, rat; settings: for increase of the feces amount (wet weight): vs control of the same group; for increase of the feces amount (wet weight), average: average of Days 1, 5 and 10
Description: During this period, the body weights of the rats were weighed each day and recorded. Feces of each rat were studied three times during the period for any unusual observations. Specifically, the amounts of feces were weighed on Days 11, 15, 18, and 21. During observation, each rat was placed in a metabolic cage. Feces were collected every twenty-four hours. The number of collected feces pellets was counted, and the pellets' shapes and colors were evaluated. After weighing the moist feces, they were dried in an oven at 100° C. for twenty-four hours. The water content from the feces was calculated according to the following formula: Water content percentage=[(wet weight−dry weight)/wet weight]×100%. (I) The results are summarized in Table 2 below: The aforementioned STD05 and compounds were studied for the laxative activity. Healthy male S.D. rats (BioLASCO Taiwan Co. Ltd.) were divided into three groups (i.e., Groups 1-3) in this study. In Group I, 6 rats, as negative control, were given no treatment; 6 rats, as positive control, were given 3.35 mg/kg/day Sennosides (Through®, Chung Mei Pharmaceutical Co., Ltd; Active ingredient: Sennosides 20 mg, as sennoside A+B 12 mg, Lot. 012F 006); 6 rats were treated STD05 (8 mg/kg/day); 6 rats were treated with an extract fraction containing aloe-emodin, rhein, and emodin (“ARE”, 8 mg/kg/day); 6 rats were treated with Aloe-emodin (4 mg/kg/day); and 6 rats were treated with Rhein (4 mg/kg/day). In Group II, 6 rats, as negative control, were given no treatment; 6 rats, as positive control, were given 3.35 mg/kg/day Sennosides; 6 rats were treated STD05 (24 mg/kg/day); 6 rats were treated with an extract fraction containing ARE (24 mg/kg/day); 6 rats were treated with Chrysophanol (4 mg/kg/day); and 6 rats were treated with Emodin (4 mg/kg/day). In Group III, 6 rats, as negative control, were given no treatment; 6 rats were treated with Physcoin (4 mg/kg/day); and 6 rats were treated with a mixture of chrysophanol and physcion (8 mg/kg/day, “CP”). The experiments were carried out under controlled temperature, humidity, and lighting. Each rat was fed standard rat food and water ad libitum in housing that provided a 12-hour light/dark cycle. For statistical comparison, all of the rats were divided into six sets according to the body weights. The first part of the experiment studied the effect of the test substances on feces production. During the 10-day period, the body weights of the rats were weighed each day and recorded. The rat's feces was also studied three times in the manner described above during the 10-day period for any unusual observations. During the 10-day period, any rat that appeared dying was euthanized, dissected, and examined for any illness or injury. Any complications or illness were analyzed by H&E stains to determine the cause of death and to allow for dosage reconsiderations for future experiments. Summarized in Table 4 below are the effects of the compounds, mixtures, or extracts on the rat body weights. During the period, feces produced by the rats were studied days 1, 5, and 10 in the same manner described above. […] In the 10-day period, the rats administered with STD05 produced more feces (wet weight) that the rats in the control group by about 32%. In addition, the pellet counts for the rats administered with STD05 were greater than those for the control rats by about 20%. Furthermore, STD05 increased the water content in feces by about 18%. The same experiments were conducted on rats administered with physcion, aloe-emodin, chrysophanol, rhein, emodin, CP, and ARE.

[1] = Side effects compared with Rheum palmatum Linne herb extracts (statement, no method given); settings: general statement
[2] = Enteric absorption rate (statement, no method given); settings: general statement
[3] = Body weight of rats over the 10-day period (Example 3); type: in vivo, rat; parameters: Body weight Difference: unit not given here; settings: for Body weight Difference, Mean / Body weight End Day 10, Mean: group mean; for Body weight Difference, Mean / Body weight Difference: Day 10 minus Day 1; for Body weight Difference / Body weight End Day 10: individual rats
Description: The aforementioned STD05 and compounds were studied for the laxative activity. Healthy male S.D. rats (BioLASCO Taiwan Co. Ltd.) were divided into three groups (i.e., Groups 1-3) in this study. In Group I, 6 rats, as negative control, were given no treatment; 6 rats, as positive control, were given 3.35 mg/kg/day Sennosides (Through®, Chung Mei Pharmaceutical Co., Ltd; Active ingredient: Sennosides 20 mg, as sennoside A+B 12 mg, Lot. 012F 006); 6 rats were treated STD05 (8 mg/kg/day); 6 rats were treated with an extract fraction containing aloe-emodin, rhein, and emodin (“ARE”, 8 mg/kg/day); 6 rats were treated with Aloe-emodin (4 mg/kg/day); and 6 rats were treated with Rhein (4 mg/kg/day). In Group II, 6 rats, as negative control, were given no treatment; 6 rats, as positive control, were given 3.35 mg/kg/day Sennosides; 6 rats were treated STD05 (24 mg/kg/day); 6 rats were treated with an extract fraction containing ARE (24 mg/kg/day); 6 rats were treated with Chrysophanol (4 mg/kg/day); and 6 rats were treated with Emodin (4 mg/kg/day). In Group III, 6 rats, as negative control, were given no treatment; 6 rats were treated with Physcoin (4 mg/kg/day); and 6 rats were treated with a mixture of chrysophanol and physcion (8 mg/kg/day, “CP”). The experiments were carried out under controlled temperature, humidity, and lighting. Each rat was fed standard rat food and water ad libitum in housing that provided a 12-hour light/dark cycle. For statistical comparison, all of the rats were divided into six sets according to the body weights. The first part of the experiment studied the effect of the test substances on feces production. During the 10-day period, the body weights of the rats were weighed each day and recorded. The rat's feces was also studied three times in the manner described above during the 10-day period for any unusual observations. During the 10-day period, any rat that appeared dying was euthanized, dissected, and examined for any illness or injury. Any complications or illness were analyzed by H&E stains to determine the cause of death and to allow for dosage reconsiderations for future experiments. Summarized in Table 4 below are the effects of the compounds, mixtures, or extracts on the rat body weights.

[4] = Group II, Day 1, Sennosides 3.35 mg/kg, STD05 24 mg/kg, ARE 24 mg/kg, Chrysophanol 4 mg/kg, Emodin 4 mg/kg
[5] = Group II, Day 5, Sennosides 3.35 mg/kg, STD05 24 mg/kg, ARE 24 mg/kg, Chrysophanol 4 mg/kg, Emodin 4 mg/kg
[6] = Group II, Day 10, Sennosides 3.35 mg/kg, STD05 24 mg/kg, ARE 24 mg/kg, Chrysophanol 4 mg/kg, Emodin 4 mg/kg
[7] = Group II, Sennosides 3.35 mg/kg/day, STD05 24 mg/kg, ARE 24 mg/kg, Chrysophanol 4 mg/kg, Emodin 4 mg/kg
[8] = Group III, Day 1, Physcion 4 mg/kg, CP 8 mg/kg
[9] = Group III, Day 5, Physcion 4 mg/kg, CP 8 mg/kg
[10] = Group III, Day 10, Physcion 4 mg/kg, CP 8 mg/kg
[11] = Group III, Physcion 4 mg/kg, CP 8 mg/kg

Cc1cc(O)c2c(c1)C(=O)c1cccc(O)c1C2=O [Chrysophanol, chrysophanol]
increase of the feces amount (wet weight) (healthy male S.D. rats; Day 1): 19%
increase of the feces amount (wet weight) (healthy male S.D. rats; Day 5): 16%
increase of the feces amount (wet weight) (healthy male S.D. rats; Day 10): 14%
Pellet count (healthy male S.D. rats; [4]): 128
Water content (healthy male S.D. rats; [4]): 50.82%
Wet Weight (healthy male S.D. rats; [4]): 28.86 g
Pellet count (healthy male S.D. rats; [5]): 119
Water content (healthy male S.D. rats; [5]): 51.22%
Wet Weight (healthy male S.D. rats; [5]): 26.48 g
Pellet count (healthy male S.D. rats; [6]): 127
Water content (healthy male S.D. rats; [6]): 56.52%
Wet Weight (healthy male S.D. rats; [6]): 28.83 g
increase of the feces amount (wet weight), average (healthy male S.D. rats): 16%
side effects often seen in herb extracts (cramping, bloating, gas, and diarrhea) [1]: do not have the side effects
enteric absorption rate [2]: very low
Body weight Difference, Mean [3, 7]: 33 g
Body weight End Day 10, Mean [3, 7]: 376 g
Body weight Difference [3, 7]: 40 and 20 and 30 (2×) and 25 and 50
Body weight End Day 10 [3, 7]: 370 (3×) and 385 and 350 and 410

COc1cc(O)c2c(c1)C(=O)c1cc(C)cc(O)c1C2=O [Physcion, physcion]
increase of the feces amount (wet weight) (healthy male S.D. rats; Day 1): 93%
increase of the feces amount (wet weight) (healthy male S.D. rats; Day 5): 57%
increase of the feces amount (wet weight) (healthy male S.D. rats; Day 10): 32%
Pellet count (healthy male S.D. rats; [8]): 134
Water content (healthy male S.D. rats; [8]): 55.73%
Wet Weight (healthy male S.D. rats; [8]): 35.38 g
Pellet count (healthy male S.D. rats; [9]): 128
Water content (healthy male S.D. rats; [9]): 53.80%
Wet Weight (healthy male S.D. rats; [9]): 35.17 g
Pellet count (healthy male S.D. rats; [10]): 121
Water content (healthy male S.D. rats; [10]): 47.66%
Wet Weight (healthy male S.D. rats; [10]): 29.43 g
increase of the feces amount (wet weight), average (healthy male S.D. rats): 61%
side effects often seen in herb extracts (cramping, bloating, gas, and diarrhea) [1]: do not have the side effects
enteric absorption rate [2]: very low
Body weight Difference, Mean [3, 11]: 30 g
Body weight End Day 10, Mean [3, 11]: 425 g
Body weight Difference [3, 11]: 25 and 30 (3×) and 45 and 20
Body weight End Day 10 ([3]; Group III, Physcion 4 mg/kg, CP 8 mg/kg, in g (unit assumed)): 410 and 430 and 450 and 385 and 415 and 460
